Laboratory results taken from the supplement of paper PMC10307832.

Columns and labels:
Test in all cases: relative viability (nuclei count vs DMSO), 5 days (fraction); higher = more cells survive
[1] = compound: CN(C)CC1=CC(=CC=C1)N=C(C2=CC=CC=C2)C3=C(NC4=C3C=CC(=C4)C(=O)N(C)C)O
In short: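 Hoechst staining, done together with fixation and permeabilisation, marked nuclei for 4× imaging and MetaXpress counting. This followed 5 days without medium change after lung cancer cell lines, kept overnight at 37 °C in 1536-well plates, were pinned with five library-drug doses (not always all listed) spaced by √10 on vehicle-anchored plates. Viability is the ratio of treated-well to vehicle-well nuclei, expressed as a median across plates. Plates passed only at control CV below 25% with at least one doubling.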

[2] = compound: CN(C)CC1=CC(=CC=C1)N=C(C2=CC=CC=C2)C3=C(NC4=C3C=CC(=C4)C(=O)N(C)C)O + CC1(C)CCC(c2ccc(Cl)cc2)=C(CN2CCN(c3ccc(C(=O)NS(=O)(=O)c4ccc(N[C@H](CCN5CCOCC5)CSc5ccccc5)c(S(=O)(=O)C(F)(F)F)c4)cc3)CC2)C1 [Navitoclax] (partner 0.5 µM)
In short: (§1)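 Medians of duplicate plates are given as relative viability. That measure is the nuclei count in treated wells divided by the count in vehicle wells. Counts were taken on 4× images of lung cancer cell lines in 1536-well plates, 5 days after pin-tool dosing the day after seeding with one drug alone or a fixed anchor-drug dose plus five library-drug doses (not always all listed) in √10 steps.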

[3] = compound: CN(C)CC1=CC(=CC=C1)N=C(C2=CC=CC=C2)C3=C(NC4=C3C=CC(=C4)C(=O)N(C)C)O + Cc1cc(Nc2cc(N3CCN(C)CC3)nc(Sc3ccc(NC(=O)C4CC4)cc3)n2)n[nH]1 [Tozasertib] (partner 0.1 µM)
In short: as §1

[4] = compound: CN(C)CC1=CC(=CC=C1)N=C(C2=CC=CC=C2)C3=C(NC4=C3C=CC(=C4)C(=O)N(C)C)O + N=C(N)NC(=N)NCCc1ccccc1 [Phenformin] (partner 250 µM)
In short: as §1

Cell Line | relative viability ([1]; 0.08 µM) | relative viability ([1]; 0.253 µM) | relative viability ([1]; 0.8 µM) | relative viability ([1]; 2.53 µM) | relative viability ([1]; 8 µM) | relative viability ([2]; first compound 0.08 µM) | relative viability ([2]; first compound 0.253 µM) | relative viability ([2]; first compound 0.8 µM) | relative viability ([2]; first compound 2.53 µM) | relative viability ([2]; first compound 8 µM) | relative viability ([3]; first compound 0.08 µM) | relative viability ([3]; first compound 0.253 µM) | relative viability ([3]; first compound 0.8 µM) | relative viability ([3]; first compound 2.53 µM) | relative viability ([3]; first compound 8 µM) | relative viability ([4]; first compound 0.08 µM) | relative viability ([4]; first compound 0.253 µM) | relative viability ([4]; first compound 0.8 µM) | relative viability ([4]; first compound 2.53 µM) | relative viability ([4]; first compound 8 µM)
NCI-H1650 | 0.967 | 0.961 | 0.982 | 1.04 | 0.909 | 1.23 | 1.16 | 1.3 | 1.15 | 1.08 | 0.352 | 0.498 | 0.421 | 0.405 | 0.343 | 0.481 | 0.55 | 0.412 | 0.49 | 0.4
NCI-H1651 | 1.01 | 0.954 | 1.04 | 0.897 | 0.978 | 1.11 | 1.11 | 1.13 | 1.11 | 0.934 | 0.621 | 0.755 | 0.71 | 0.595 | 0.692 | 0.346 | 0.343 | 0.349 | 0.292 | 0.329
NCI-H1666 | 1.07 | 0.994 | 0.959 | 1.11 | 1.12 | 0.983 | 1.14 | 1.02 | 1.07 | 1.1 | 0.642 | 0.59 | 0.675 | 0.603 | 0.868 | 0.569 | 0.579 | 0.615 | 0.58 | 0.585
NCI-H1734 | 1.1 | 1.05 | 1.04 | 0.962 | 0.824 | 0.821 | 0.836 | 0.889 | 0.844 | 0.644 | 0.259 | 0.262 | 0.227 | 0.268 | 0.247 | 0.354 | 0.408 | 0.385 | 0.376 | 0.368
NCI-H1755 | 0.981 | 0.967 | 0.971 | 0.983 | 0.987 | 1.02 | 1.01 | 0.998 | 0.972 | 0.961 | 0.531 | 0.479 | 0.642 | 0.594 | 0.615 | 0.577 | 0.58 | 0.601 | 0.549 | 0.566
NCI-H1793 | 1.01 | 1.07 | 0.773 | 1.05 | 0.839 | 0.387 | 0.439 | 0.269 | 0.492 | 0.406 | 0.305 | 0.385 | – | 0.368 | 0.347 | 0.405 | 0.394 | – | 0.324 | 0.284
NCI-H1915 | 1.01 | 0.986 | 1.07 | 1.01 | 0.992 | 0.819 | 0.75 | 0.782 | 0.791 | 0.805 | 0.474 | 0.409 | 0.432 | 0.407 | 0.414 | 0.368 | 0.35 | 0.383 | 0.361 | 0.352
NCI-H1944 | 0.956 | 1.03 | 0.892 | 0.903 | 0.823 | 1.21 | 0.937 | 0.951 | 0.947 | 0.908 | 0.25 | 0.251 | 0.222 | 0.262 | 0.214 | 0.2 | 0.217 | 0.183 | 0.177 | 0.187
NCI-H1975 | 0.955 | 0.915 | 0.85 | 0.926 | 0.789 | 1.07 | 1.06 | 0.989 | 1.08 | 1.06 | 0.807 | 0.785 | 0.736 | 0.757 | 0.708 | 0.378 | 0.407 | 0.357 | 0.393 | 0.36
NCI-H1993 | 0.979 | 0.98 | 0.717 | 0.944 | 1.07 | 0.935 | 1.02 | 0.885 | 0.933 | 1.09 | 0.623 | 0.525 | 0.524 | 0.584 | 0.646 | 0.504 | 0.498 | 0.586 | 0.507 | 0.493
NCI-H2009 | 1.03 | 0.987 | 1.1 | 0.973 | 0.97 | 1.14 | 1.12 | 1.17 | 1.16 | 1.17 | 0.767 | 0.723 | 0.721 | 0.551 | 0.699 | 0.508 | 0.484 | 0.49 | 0.416 | 0.372
NCI-H2023 | 0.966 | 0.905 | 1.01 | 0.789 | 0.79 | 1.02 | 0.97 | 0.952 | 0.872 | 0.984 | 0.333 | 0.342 | 0.291 | 0.307 | 0.343 | 0.377 | 0.392 | 0.405 | 0.338 | 0.342
NCI-H2085 | 1.02 | 1.02 | 0.98 | 1.02 | 1.02 | 1.24 | 1.16 | 1.06 | 1.16 | 1.18 | 0.862 | 0.901 | 0.793 | 0.781 | 0.829 | 0.747 | 0.711 | 0.635 | 0.784 | 0.638
NCI-H2087 | 0.915 | 1.07 | 1.04 | 0.978 | 0.956 | 1.02 | 0.942 | 1.17 | 1.03 | 0.9 | 0.242 | 0.233 | 0.265 | 0.27 | 0.233 | 0.478 | 0.522 | 0.403 | 0.48 | 0.31
NCI-H2126 | 1.01 | 0.988 | 0.941 | 1.03 | 0.903 | 0.899 | 0.898 | 0.821 | 0.913 | 0.892 | 0.961 | 0.849 | 0.856 | 0.825 | 0.837 | 0.522 | 0.553 | 0.542 | 0.511 | 0.557
NCI-H2170 | 0.952 | 0.981 | 0.812 | 1.02 | 0.915 | 0.64 | 0.583 | 0.307 | 0.565 | 0.36 | 0.749 | 0.8 | 0.586 | 0.679 | 0.609 | 0.404 | 0.4 | 0.408 | 0.381 | 0.384
